In data set [1] the test system is IL-2 stimulated STAT5 phosphorylation in Tall-1 human T cell line. Nature of the data set: Inhibition of IL-2 stimulated pSTAT5 in Tall-1 T cells. Format: cell-based. The conditions noted are these: AlphaLisa, read-out: pIC50, inhibition of IL-2 stimulated pSTAT5 (converted). How it is done: The potency of test compounds for inhibition of interleukin-2 (IL-2) stimulated STAT5 phosphorylation was measured in the Tall-1 human T cell line (DSMZ) using AlphaLisa. Because IL-2 signals through JAK1/3, this assay provides a measure of JAK1/3 cellular potency.
Phosphorylated STAT5 was measured via the AlphaLISA SureFire Ultra pSTAT5 (Tyr694/699) kit (PerkinElmer). Human T cells from the Tall-1 cell line were cultured in a 37° C., 5% CO2 humidified incubator in RPMI (Life Technologies) supplemented with 15% Heat Inactivated Fetal Bovine Serum (FBS, Life Technologies), 2 mM Glutamax (Life Technologies), 25 mM HEPES (Life Technologies) and 1× Pen/Strep (Life Technologies). Compounds were serially diluted in DMSO and dispensed acoustically to empty wells. […] Phosphorylated STAT5 was measured via the pSTAT5 AlphaLisa kit (PerkinElmer). […] Luminescence was measured with excitation at 689 nm and emission at 570 nm using an EnVision plate r reader (PerkinElmer) under green filtered <100 lux light.
To determine the inhibitory potency of test compounds in response to IL-2, the average emission intensity of beads bound to pSTAT5 was measured in a human T cell line. IC50 values were determined from analysis of the inhibition curves of signal intensity versus compound concentration. Data are expressed as pIC50 (negative decadic logarithm IC50) values (mean±standard deviation).
On the technique in general: Alpha assays give light when donor and acceptor beads are brought close together.

Data set [2] has as its system IL-6 trans-signaling (IL6+sIL6Rα)-induced STAT3 phosphorylation in HRMECs. Nature of the data set: Inhibition of IL-6 trans-signaling stimulated p-STAT3 in primary human retinal microvascular endothelial cells. Conditions: HRMEC, 500 pM IL-6, 5 nM sIL6Rα, three independent experiments, read-out: pIC50, inhibition of IL-6 trans-signaling stimulated p-STAT3 (converted). Format: cell-based. The method, then: The cellular potency of the test compound toward inhibition of IL-6 trans-signaling (IL6+sIL6Rα)-induced STAT3 phosphorylation was measured in primary human retinal microvascular endothelial cells (HRMECs). IL-6 trans-signaling is mediated by IL-6 receptor beta (gp130), which is intracellularly coupled to JAK enzymes. Following gp130 engagement and dimerization, JAKs are activated and directly phosphorylate STAT3. Thus, this assay provides a measure of JAK cellular potency. HRMECs (Cell Systems, Kirkland Wash.) were plated in sterile, tissue culture treated, flat-bottom 96-well assay plates coated with Attachment Factor™ (Cell Systems, Kirkland Wash.) at a density of 1×10^4 cells per well. HRMEC cultures were grown for 3 days at 37° C., 95% humidity, 5% CO2 in culture media supplemented with 10% fetal bovine serum, Culture Boost™ growth factors, and BacOff® antibiotic (Cell Systems, Kirkland Wash.). […] To determine the inhibitory potency of the test compound, levels of p-STAT3 were measured using AlphaLISA® SureFire® Ultra™ p-STAT3 (Tyr705) assay kit (PerkinElmer) according to manufacturer's instructions. IC50 values were determined from inhibition curves of % p-STAT3 Alpha Signal vs test compound concentration (curve fitting conducted with GraphPad Prism 7.0). Data are expressed as pIC50 (negative log10(test compound concentration)).

Data set [3] can be described thus: Lung and plasma pharmacokinetics in mice. Format: in vivo, mouse. Conditions: BALB/c mice. How it is done: Plasma and lung concentrations of compound 1 and ratios thereof were determined in the following manner. BALB/c mice from Charles River Laboratories were used in the assay. Compound 1 was formulated in 20% propylene glycol in citrate buffer (pH 4) at a concentration of 0.324 mg/mL as a solution. 50 μL of the solution formulation was introduced into the trachea of a mouse by oral aspiration. At various time points (0.167, 2, 6 hr) post dosing, blood samples were removed via cardiac puncture and intact lungs were excised from the mice. Blood samples were centrifuged (Eppendorf centrifuge, 5804R) for 4 minutes at approximately 12,000 rpm at 4° C. to collect plasma. Lungs were padded dry, weighed, and homogenized in 0.6 mL sterile water. Plasma and lung concentrations of compound 1 were determined by LC-MS analysis against analytical standards constructed into a standard curve in the test matrix. […] The lung-to-plasma ratio was determined as the ratio of the lung AUC in μg hr/g to the plasma AUC in μg hr/mL (where AUC is conventionally defined as the area under the curve of test compound concentration vs. time).

These results are taken from patent US10968222B2, “2-azabicyclo hexane JAK inhibitor compound” (THERAVANCE BIOPHARMA R&D IP, LLC, priority 2018, dated 2021).

Take `CCc1cc(O)c(F)cc1-c1cc(F)c2c(-c3nc4c([nH]3)CCN(C(=O)[C@]35C[C@H]3CCN5)C4)n[nH]c2c1` [Compound 1, (1S,5R)-2-azabicyclo[3.1.0]hexan-1-yl(2-(6-(2-ethyl-5-fluoro-4-hydroxyphenyl)-4-fluoro-1H-indazol-3-yl)-6,7-dihydro-3H-imidazo[4,5-c]pyridin-5(4H)-yl)methanone]: the results for the IC50 in data set [1] and in data set [2] were 15.8 nM and 501 nM, respectively. Besides, in data set [3] (oral aspiration of 50 μL of 0.324 mg/mL solution), the “lung AUC (0-6 hr)” value is 43.5 µg·h/g. Also, the Kp in data set [3] (mouse, 16.2 µg/mouse, oral aspiration, lung AUC in μg hr/g to plasma AUC in μg hr/mL, read-out: lung-to-plasma AUC ratio) was 59.6.
